From patent US7598340B2, “Monoclonal antibody to a human MDR1 multidrug resistance gene product, and uses” (The Board of Trustees of the University of Illinois, priority 1992, dated 2009)

Columns and labels:
BALB/c 3T3-1000 cells = experiment: Cell growth inhibition of BALB/c 3T3-1000 cells by vinblastine with mAb or verapamil; type: cell-based, mouse; settings: 350 ng/ml vinblastine
[1] = system: BALB/c 3T3-1000 fibroblasts; experiment: Colony formation by BALB/c 3T3-1000 fibroblasts in the presence of vinblastine; type: cell-based, mouse; settings: BALB/c 3T3-1000 cell line
Protocol: The effects of antibody preparations of the invention on drug cytotoxicity may be assessed by incubating suspensions of MDR and control cells with the antibody preparation, then testing for cell growth inhibition by colony formation, plating efficiency, and/or MTT growth inhibition assay^13,16 in the absence and presence of an anti-cancer drug such as one of the vinca alkaloids. BALB/c 3T3-1000 fibroblasts are particularly suitable for plating efficiency assays and the MDR cell line K562/inf for the growth inhibition assay. The effects of antibody preparations on drug cytotoxicity may be assayed by incubating cell suspensions with a purified antibody preparation, and plating cells in microtitre plate wells for colony or growth inhibition assays in the presence of the antibody preparation.
All drugs were obtained from Sigma, except for G418 (Gibco) and taxol (gift of Dr. S. B. Horwitz). Colony formation and MTT assays for cell growth inhibition were carried out by art-recognized procedures. […]
In the system described in FIG. 3B, we examined the effects of different mAb on colony formation by BALB/c 3T3-1000 fibroblasts in the presence of vinblastine. […] Colonies were fixed with methanol or ethanol and stained with crystal violet on day 11, and scored for plating efficiency.

For `COc1ccc(CCN(C)CCCC(C#N)(c2ccc(OC)c(OC)c2)C(C)C)cc1OC` (centres unmarked) [Verapamil, verapamil], the “concentration achieving the same potentiation of vinblastine toxicity” value (BALB/c 3T3-1000 cells) was 3 µM.
`CC[C@]1(O)C[C@@H]2CN(CCc3c([nH]c4ccccc34)[C@@](C(=O)OC)(c3cc4c(cc3OC)N(C)[C@H]3[C@@](O)(C(=O)OC)[C@H](OC(C)=O)[C@]5(CC)C=CCN6CC[C@]43[C@@H]65)C2)C1` [vinblastine] showed an ID90 of vinblastine [1] of 0.35 µg/mL.
